Experimental data: patent publication US8420336B2, “Method of bioassaying yokukansan” (priority 2008, dated 2013)
Like-named read-outs stand apart in the source and are kept apart here.

Tests used:
glutamate receptors = assay: Non-selective binding test for test drug to glutamate receptors ([3H]L-glutamate competition); parameters: species or system Wistar rat; conditions: labeled ligand of the assay; listed among the conditions of the experiment
Experimental: (§1) 20 mg of a test drug (TJ-54 or an extract of the constituent crude drug) was weighed. Distilled water was added to the test drug so as to give a concentration of 20 mg/125 μL (20 mg/100 μL for the extract of the constituent crude drug), and further the resulting solution was diluted to 2-fold with DMSO, which was used as a stock solution. This stock solution was diluted to have each concentration.
(1) Non-Selective Binding Test for Test Drug to Glutamate Receptors
20 mL/g of 50 mM Tris-HCl buffer was added to the brain tissue collected from a Wistar rat. […]
(§2) After completion of the incubation, the mixture was filtered through a glass fiber filter (Whatman 1821-915 GF/B, Whatman) using a cell harvester (Brandel MLR-48, Skatron micro-96, Perkin Elmer), and the filter was washed 3 to 6 times with 50 mM Tris-HCl buffer. Then, the radioactivity of [^3H]L-glutamate on the glass fiber filter was measured using a liquid scintillation counter (Wallac Counter, Perkin Elmer). As for the nonspecific binding, the radioactivity of [^3H]L-glutamate in the presence of 50 μM unlabeled L-glutamate was measured. As for the total binding, the radioactivity of [^3H]L-glutamate in the absence of the test drug was measured. The binding activity of the test drug was calculated from the following binding inhibition ratio (%). […]

[1] = biological target: T1, glycine binding site of NMDA receptors (Rattus norvegicus, UniProt P35439); assay: Binding test for test drug to glycine binding site of NMDA receptors ([3H]MDL-105519 competition); parameters: species or system Wistar rat; conditions: labeled ligand of the assay; listed among the conditions
T1 construct: cerebral cortex tissue collected from a Wistar rat; from tissue; host or cells: cerebral cortex of Wistar rat, membrane fraction
Experimental: 20 mL/g of 50 mM HEPES buffer was added to the cerebral cortex tissue collected from a Wistar rat. The resulting mixture was homogenized, and the homogenate was centrifuged (1,000×g for 10 minutes at 4° C.). Then, the resulting supernatant was collected and centrifuged (20,000×g for 20 minutes at 4° C.) to obtain a pellet. The pellet was resuspended in a buffer and the suspension was centrifuged (8,000×g for 20 minutes at 4° C.). Further, the resulting supernatant was collected and centrifuged (48,000×g for 20 minutes at 4° C.) to obtain a pellet. […]
After completion of the incubation, the mixture was filtered through a glass fiber filter (Whatman 1821-915 GF/B, Whatman) using a cell harvester (Brandel MLR-48, Skatron micro-96, Perkin Elmer), and the filter was washed 3 to 6 times with 50 mM HEPES buffer. Then, the radioactivity of [^3H]MDL-105519 on the glass fiber filter was measured using a liquid scintillation counter (Wallac Counter, Perkin Elmer). As for the nonspecific binding, the radioactivity of [^3H]MDL-105519 in the presence of 10 μM unlabeled MDL-105519 was measured. As for the total binding, the radioactivity of [^3H]MDL-105519 in the absence of the test drug was measured. The binding activity of the test drug was evaluated on the basis of the binding inhibition ratio obtained from the above formula. […]

[2] = biological target: glutamate binding site of NMDA receptors; assay: Binding test for test drug to glutamate binding site of NMDA receptors ([3H]CGP-39653 competition); parameters: species or system Wistar rat; conditions: labeled ligand of the assay; listed among the conditions
Experimental: as §1
(4) Binding Test for Test Drug to Glutamate Binding Site of NMDA Receptors
20 mL/g of 50 mM Tris-HCl buffer was added to the cerebral cortex tissue collected from a Wistar rat. The resulting mixture was homogenized, and the homogenate was centrifuged (1,000×g for 10 minutes at 4° C.). […]
as §2, with “of [^3H]CGP-39653” for “of [^3H]L-glutamate”, “of 1000” for “of 50”, “measured.” for “measured. The binding activity of the test drug was calculated from the following binding inhibition ratio (%).”

AMPA receptors = assay: Binding test for test drug to AMPA receptors ([3H]AMPA competition); parameters: species or system Wistar rat; conditions: labeled ligand of the assay, listed among the conditions
Experimental: as §1
(2) Binding Test for Test Drug to AMPA Receptors
20 mL/g of 50 mM Tris-HCl buffer (containing 200 mM KSCN) was added to the cerebral cortex tissue collected from a Wistar rat. […]
as §2, with “of [^3H]AMPA” for “of [^3H]L-glutamate”, “of 1000” for “of 50”, “was evaluated on” for “was calculated from”, “the basis of the” for “the following”, “ratio obtained from the above formula.” for “ratio (%).”

human recombinant mGluR5 = biological target: T2, human recombinant mGluR5 (Homo sapiens, UniProt P41594); assay: Binding test for test drug to metabotropic glutamate receptor mGluR5 ([3H]quisqualic acid competition); conditions: labeled ligand of the assay; listed among the conditions
T2 construct: purchased Perkin Elmer; host or cells: CHO-K1 cell membranes
T2 sequence (P41594 21-1212): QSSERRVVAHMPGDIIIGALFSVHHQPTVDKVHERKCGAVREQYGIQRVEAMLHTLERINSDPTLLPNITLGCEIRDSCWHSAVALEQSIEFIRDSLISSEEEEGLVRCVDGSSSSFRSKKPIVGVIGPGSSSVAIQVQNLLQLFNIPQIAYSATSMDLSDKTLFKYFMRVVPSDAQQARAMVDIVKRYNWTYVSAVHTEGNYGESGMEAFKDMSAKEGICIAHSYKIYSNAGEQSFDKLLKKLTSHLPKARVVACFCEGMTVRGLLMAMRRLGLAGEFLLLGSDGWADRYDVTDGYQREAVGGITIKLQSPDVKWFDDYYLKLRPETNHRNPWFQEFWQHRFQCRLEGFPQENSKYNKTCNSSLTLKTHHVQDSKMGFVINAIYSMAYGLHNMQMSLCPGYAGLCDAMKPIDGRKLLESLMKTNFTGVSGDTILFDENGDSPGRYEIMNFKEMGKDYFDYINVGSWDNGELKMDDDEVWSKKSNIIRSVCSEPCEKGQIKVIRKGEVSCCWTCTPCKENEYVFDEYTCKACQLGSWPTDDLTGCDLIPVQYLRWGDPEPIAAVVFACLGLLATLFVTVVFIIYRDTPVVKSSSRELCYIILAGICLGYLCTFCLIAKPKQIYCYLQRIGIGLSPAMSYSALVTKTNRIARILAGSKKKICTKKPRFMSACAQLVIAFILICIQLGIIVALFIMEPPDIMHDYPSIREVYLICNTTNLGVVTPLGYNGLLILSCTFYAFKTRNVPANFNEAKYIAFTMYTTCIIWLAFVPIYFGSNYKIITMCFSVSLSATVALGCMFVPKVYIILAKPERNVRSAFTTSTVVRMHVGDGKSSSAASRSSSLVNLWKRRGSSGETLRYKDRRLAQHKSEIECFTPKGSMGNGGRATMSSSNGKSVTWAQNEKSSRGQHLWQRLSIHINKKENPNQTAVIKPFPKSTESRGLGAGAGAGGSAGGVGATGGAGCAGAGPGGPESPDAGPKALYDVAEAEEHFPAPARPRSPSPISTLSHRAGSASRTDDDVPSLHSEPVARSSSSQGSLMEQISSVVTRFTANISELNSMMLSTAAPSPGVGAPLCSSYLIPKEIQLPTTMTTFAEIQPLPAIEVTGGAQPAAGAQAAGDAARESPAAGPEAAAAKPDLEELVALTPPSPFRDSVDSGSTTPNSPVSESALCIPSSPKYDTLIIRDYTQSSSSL
Experimental: (6) Binding Test for Test Drug to Metabotropic Glutamate Receptor mGluR5
30 μg protein/100 μL of a CHO-K1 cell membrane solution, 20 μL of [^3H]quisqualic acid (final concentration: 0.03 μM) and 1.1 μL of the test drug solution of each concentration were added to a 1 mL tube, and the resulting mixture was incubated at 25° C. for 2 hours. In the control group, a DMSO solution (final concentration: 0.5%) was added, and the resulting mixture was incubated in the same manner.
After completion of the incubation, the mixture was filtered through a glass fiber filter (Whatman 1821-915 GF/B, Whatman) using a cell harvester (Micro 96 FilterMate, Perkin Elmer), and the filter was washed 6 times with 20 mM HEPES buffer. Then, the radioactivity of [^3H]quisqualic acid on the glass fiber filter was measured using a liquid scintillation counter (Wallac Counter). As for the nonspecific binding, the radioactivity of [^3H]quisqualic acid in the presence of 1000 μM unlabeled L-glutamate was measured. As for the total binding, the radioactivity of [^3H]quisqualic acid in the absence of the test drug was measured. The binding activity of the test drug was evaluated on the basis of the binding inhibition ratio obtained from the above formula.
The respective conditions in this experiment are as follows. […]

kainate receptors = assay: Binding test for test drug to kainate receptors ([3H]kainic acid competition); parameters: species or system Wistar rat; conditions: labeled ligand of the assay; listed among the conditions
Experimental: as §1
(3) Binding Test for Test Drug to Kainate Receptors
20 mL/g of 50 mM Tris-HCl buffer was added to the brain tissue excluding the cerebellum tissue collected from a Wistar rat. The resulting mixture was homogenized, and centrifugation (48,000×g for 15 minutes at 4° C.) of the homogenate was repeated three times to obtain a membrane fraction. […]
Then, the radioactivity of [^3H]kainic acid on the glass fiber filter was measured using a liquid scintillation counter (Wallac Counter, Perkin Elmer). As for the nonspecific binding, the radioactivity of [^3H]kainic acid in the presence of 1000 μM unlabeled L-glutamate was measured. As for the total binding, the radioactivity of [^3H]kainic acid in the absence of the test drug was measured. The binding activity of the test drug was evaluated on the basis of the binding inhibition ratio obtained from the above formula. […]

With N[C@@H](CCC(=O)O)C(=O)O [[^3H]L-glutamate, L-glutamate] the Kd (glutamate receptors) was 293 nM.
For O=C(O)C(=Cc1c(C(=O)O)[nH]c2cc(Cl)cc(Cl)c12)c1ccccc1 [[^3H]MDL-105519], the Kd [1] was 6 nM.
CCCC(=CC(N)C(=O)O)CP(=O)(O)O (stereo not shown) [[^3H]CGP-39653] gave a Kd [2] of 19 nM.
Work on Cc1onc(O)c1CC(N)C(=O)O (stereo not drawn) [[^3H]AMPA, α-amino-3-hydroxy-5-methyl-4-isoxazolepropionate] yielded a Kd (AMPA receptors; Kd1, read-out: Kd (Kd1)) of 18 nM and a Kd (AMPA receptors; Kd2, read-out: Kd (Kd2)) of 990 nM.
Work on N[C@@H](Cn1oc(=O)[nH]c1=O)C(=O)O [[^3H]quisqualic acid, quisqualic acid] yielded a Kd (human recombinant mGluR5) of 26 nM.
For C=C(C)[C@H]1CN[C@H](C(=O)O)[C@H]1CC(=O)O [[^3H]kainic acid, kainic acid], the Kd (kainate receptors) was 12 nM.
